Measurements reported in the supplement of paper PMC10307832.

Experiments:
Assay in all cases: relative viability (nuclei count vs DMSO), 5 days (fraction); higher = more cells survive
[1] = compound: CC1=CC=C(C=C1)C(=O)CN2C3=C(CCCC3)SC2=N [Pifithrin_alpha] + CC(=O)c1c(C)c2cnc(Nc3ccc(N4CCNCC4)cn3)nc2n(C2CCCC2)c1=O [Palbociclib] (partner 0.5 µM)
In short: (§1)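 Lung cancer cell lines in 1536-well plates got either a single drug or a fixed anchor-drug dose together with five library-drug doses (not always all listed) in √10 steps, by pin tool, on the day after seeding. Nuclei were counted after 5 days, and relative viability is the treated-to-vehicle ratio of nuclei counts. Values are medians of duplicate plates.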

Axitinib + Trametinib = compound: CNC(=O)c1ccccc1Sc1ccc2c(/C=C/c3ccccn3)n[nH]c2c1 [Axitinib] + CC(=O)Nc1cccc(-n2c(=O)n(C3CC3)c(=O)c3c(Nc4ccc(I)cc4F)n(C)c(=O)c(C)c32)c1 [Trametinib] (partner 0.02 µM)
In short: as §1

Axitinib + Alpelisib = compound: CNC(=O)c1ccccc1Sc1ccc2c(/C=C/c3ccccn3)n[nH]c2c1 [Axitinib] + Cc1nc(NC(=O)N2CCC[C@H]2C(N)=O)sc1-c1ccnc(C(C)(C)C(F)(F)F)c1 [Alpelisib] (partner 2 µM)
In short: as §1

Bemcentinib + Luminespib = compound: Nc1nc(Nc2ccc3c(c2)CC[C@@H](N2CCCC2)CC3)nn1-c1cc2c(nn1)-c1ccccc1CCC2 [Bemcentinib] + CCNC(=O)c1noc(-c2cc(C(C)C)c(O)cc2O)c1-c1ccc(CN2CCOCC2)cc1 [Luminespib] (partner 0.01 µM)
In short: as §1

Cell Line	relative viability ([1]; first compound 1 µM)	relative viability ([1]; first compound 3.162 µM)	relative viability ([1]; first compound 10 µM)	relative viability ([1]; first compound 31.62 µM)	relative viability ([1]; first compound 100 µM)	relative viability (Axitinib + Trametinib; first compound 0.005 µM)	relative viability (Axitinib + Trametinib; first compound 0.01581 µM)	relative viability (Axitinib + Trametinib; first compound 0.05 µM)	relative viability (Axitinib + Trametinib; first compound 0.1581 µM)	relative viability (Axitinib + Trametinib; first compound 0.5 µM)	relative viability (Axitinib + Alpelisib; first compound 0.005 µM)	relative viability (Axitinib + Alpelisib; first compound 0.01581 µM)	relative viability (Axitinib + Alpelisib; first compound 0.05 µM)	relative viability (Axitinib + Alpelisib; first compound 0.1581 µM)	relative viability (Axitinib + Alpelisib; first compound 0.5 µM)	relative viability (Bemcentinib + Luminespib; first compound 0.04 µM)	relative viability (Bemcentinib + Luminespib; first compound 0.1265 µM)	relative viability (Bemcentinib + Luminespib; first compound 0.4 µM)	relative viability (Bemcentinib + Luminespib; first compound 1.265 µM)	relative viability (Bemcentinib + Luminespib; first compound 4 µM)
NCI-H460	0.102	0.102	0.12	0.0866	0.0814	0.165	0.177	0.188	0.297	0.253	0.569	0.571	0.54	0.549	0.821	0.0301	0.0417	0.0326	0.0332	0.0269
NCI-H322M	0.381	0.56	0.501	0.474	0.525	0.577	0.458	0.48	0.467	0.486	0.834	0.688	0.729	0.944	0.893	0.828	0.943	0.835	0.817	0.804
HCC-827	0.49	0.444	0.479	0.43	0.471	0.572	0.519	0.552	0.548	0.518	0.955	0.923	0.991	0.978	1.08	0.689	0.6	0.624	0.742	0.589
HOP-62	0.45	0.483	0.396	0.335	0.52	0.404	0.351	0.404	0.431	0.454	1.07	1.22	0.78	0.998	1.2	0.863	0.875	0.844	1.02	1
Calu-6	–	–	–	–	–	–	–	–	–	–	0.847	0.997	1.02	1.01	1.18	–	–	–	–	–
NCI-H2023	0.388	0.327	0.365	0.227	0.184	0.634	0.483	0.489	0.439	0.57	0.696	0.615	0.551	0.54	0.682	0.839	0.695	1.02	0.864	0.657
NCI-H441	0.203	0.249	0.217	–	0.19	0.521	0.404	0.331	0.485	0.567	0.79	0.72	0.965	0.561	0.852	0.354	0.485	0.303	0.469	0.321
NCI-H2347	0.468	0.415	0.442	0.386	0.365	0.257	0.292	0.427	0.279	0.318	1.12	1.17	1.05	1.01	1.01	0.631	0.438	0.866	0.5	0.417
NCI-H1648	0.221	0.313	0.305	0.337	0.296	0.622	0.553	0.335	0.525	0.509	–	–	–	–	–	–	–	–	–	–
NCI-H358	0.134	0.151	0.137	0.115	0.119	0.137	0.13	0.144	0.125	0.14	1.03	0.898	0.806	0.738	1.05	0.319	0.335	0.303	0.247	0.369
NCI-H1944	0.326	0.303	0.277	0.233	0.284	0.562	0.388	0.451	0.39	0.434	0.797	0.827	0.855	0.854	0.868	0.735	0.836	0.791	0.705	0.758
NCI-H1792	–	0.589	0.637	0.535	0.669	0.618	0.363	0.499	0.494	0.498	0.797	0.715	0.671	0.699	0.683	0.578	0.482	0.64	0.489	0.486
ABC-1	–	0.839	0.831	0.462	0.53	–	–	–	–	–	1.16	1.06	0.945	1.07	1.54	0.456	0.682	0.801	1.02	0.741
NCI-H1650	0.285	0.321	0.389	0.307	0.282	0.613	0.469	0.682	0.648	0.749	–	–	–	–	–	0.207	0.237	0.199	0.236	0.186
NCI-H1703	–	–	–	–	–	–	–	–	–	–	0.264	0.214	0.186	0.171	0.243	–	–	–	–	–
HCC-78	0.449	0.412	0.454	0.409	0.488	0.955	0.683	0.518	0.615	0.986	0.34	0.328	0.3	0.322	0.366	–	–	–	–	–
NCI-H522	0.988	0.854	0.834	0.893	0.947	0.87	0.752	0.853	0.633	0.81	–	–	–	–	–	0.95	1.15	1.16	1.21	1.06
NCI-H1623	–	–	–	–	–	–	–	–	–	–	–	–	–	–	–	0.498	0.547	0.588	0.481	0.467
NCI-H1563	–	–	–	–	–	–	–	–	–	–	1.04	0.916	0.951	0.892	0.986	0.507	0.538	0.475	0.55	0.535
NCI-H596	–	–	–	–	–	0.881	0.625	0.835	0.8	0.895	0.503	0.624	0.531	0.599	0.553	0.893	1.12	1.23	1.27	1.09
